Experimental data taken from article PMC10609273, “Radiosynthesis and Early Evaluation of a Positron Emission Tomography Imaging Probe [^18F]AGAL Targeting Alpha-Galactosidase A Enzyme for Fabry Disease” (Molecules, 2023).

Legend:
wild type mice = experiment: Dynamic in vivo PET/CT imaging after intravenous injection; parameters: species or system mouse; conditions: i.v.
Procedure: After intravenous injection of [^18F]AGAL in wild type mice, the radioactivity rapidly accumulated in key organs such as the kidneys, liver, and heart, with the kidneys having the highest peak standardized uptake value (SUV ~18) at 3 min followed by rapid washout from all organs to lower than 1 SUV by 30 min and remaining low until the end of the 90 min scan (Figure 6A,B).
Figure 6 Dynamic in vivo PET/CT imaging in wild type mice after [^18F]AGAL intravenous injection. Time course of average radioactivity concentrations (n = 4, Mean ± SD) from various organs shown for full 90 min (A) and first 10 min (B) after tracer injection. (C) Representative coronal sections of PET/CT scan images from a wild type mouse with frames averaged between 0–2 min, 2–10 min, 10–30 min, 30–60 min, and 60–90 min are shown. SUV: Standardized uptake value.
[^18F]AGAL PET imaging was performed on a dedicated small animal PET/CT scanner (Siemens Multimodality Inveon, Siemens Medical Solutions USA Inc., Knoxville, TN, USA). The wild-type mice (n = 3, male 129S6) were anesthetized with 3% isoflurane/medical air inhalation prior to the radiotracer injection and throughout the scan duration. A bolus intravenous injection (via the lateral tail vein) of [^18F]AGAL (~7.4 MBq) was administered followed by dynamic PET scans in list mode for 90 min. After the PET acquisition, a low-dose CT scan was acquired (80 kVp, 0.5 mA) for anatomical reference and to provide guidance for the delineation of selected tissues volume of interest (VOI). The acquired PET data were sorted into 0.5 mm sinogram bins and 25 time frames (4 × 15 s, 4 × 60 s, and 17 × 300 s) for image reconstruction using FORE/3D-OSEM-MAP. The reconstructed PET/CT images were analyzed with the Siemens Inveon Research Workplace software v4.0 or other appropriate software. The radioactivity retention within the selected tissue was obtained from mean voxel intensity values within the VOI and then converted to megabecquerels per milliliter using the calibration factor determined for the Inveon PET System. […]

[1] = Stability of the formulated product by analytical HPLC; type: physicochemical
Procedure: Stability of the product was monitored via analytical HPLC over time.
Approximately 2000 mCi of [^18F]fluoride was produced on a GE PETtrace 800 cyclotron and delivered to the ^18F target delivery vial of a GE FX2 N radiosynthesis module (Figure 4). The irradiated target water was passed through a pre-conditioned Sep-PAK Light QMA Cartridge to trap [^18F]fluoride, followed by elution from the cartridge into reactor 1 using 3 mg […] and 13 mg Cryptand 222 in 0.6 mL of 50% acetonitrile in water. The contents of reactor 1 were dried via azeotropic distillation using a combination of heating, helium flow, and vacuum. An additional 1 mL of acetonitrile was introduced to reactor 1 and the azeotropic drying process was repeated. The reactor temperature was then reduced to 30 °C, followed by introduction of 4-pentynyl p-tosylate (10 mg, ABX GmbH, Radeberg, Germany) in 1.0 mL acetonitrile (anhydrous). The reactor was then sealed and heated to 110 °C and allowed to react with stirring for 3 min. Reactor 1 was then opened to reactor 2, with the reactor 1 needle in the “up” position. […]

O=C(CCCCCCCn1cc(CCC[18F])nn1)N1C2C(O)C(O)C(O)C(CO)C21 (centres unmarked) [[^18F]AGAL]
bone uptake (tracer defluorination) (wild type mice; PET images): No bone uptake
peak standardized uptake value (SUV), kidneys (wild type mice; at 3 min): ~ 18 SUV
standardized uptake value after washout, all organs (wild type mice; by 30 min until end of 90 min scan): lower than 1 SUV
decrease in RCP ([1]; after 6 h, with sodium ascorbate in the formulation (5 mg/mL)): less than 3%
decrease in RCP ([1]; after 6 h at room temperature, 10% EtOH in saline): 5–8%
